Assay results taken from US5110976A, “Insecticidal composition comprising more than one active ingredient” (priority 1985, dated 1992).

Legend:
T. confusum = assay: Contact test with piperonyl butoxide (Table 17); type: in vivo, flour-beetle (T. confusum), imagos; conditions: Tribolium confusum, 24 h, PBO, where added, 0.5 mg/disc
Method: The active ingredient is dissolved in a 1:2 mixture of oil and acetone; filter paper discs (Whatman No. 1, diameter 9 cm) are impregnated with the solutions of the corresponding stereoisomers and enantiomer-pairs, respectively. The acetone is allowed to evaporate, whereupon the insects are exposed to filter papers discs placed in Petri-dishes. Three parallels are used on each dose and 15 insects are placed into each Petri-dish. The percental mortality is determined after 24 hours. The corrected percent mortality is calculated by means of the Abbot Formula.
Imagos of flour-beetle (T. confusum) are treated in an analogous manner to Example 41. As synergist piperonyl butoxide is used in a dose of 0.5 mg/disc.

L. decemlineata = assay: 5 EC formulations sprayed on glass plates (Table 20); type: in vivo, imagos; conditions: 5 EC formulation, 48 hours
Method: (§1) The 5 EC formulations prepared according to Example 42 are diluted 50x, 100x, 200x, 400x, 800x and 1600x with water and 0.5 ml doses are sprayed onto glass plates. After drying 10 L. decemlineata imagos are placed on each glass plate and the insects are covered with Petri-dishes. The tests are carried out by using 6 doses and 3 parallels for each dose. The killed insects are counted after 48 hours.

house fly = assay: Topical LD50 on house fly (mg/kg); type: in vivo; conditions: Musca domestica, approximate, topically
Text: (§2) The said selectivity index of the enantiomer-pair Ia amounts to 50/0.45=111.
(§3) In addition to the synergistic effect the composition of the present invention has a number of further advantages too and for this reason it is an outstanding product. It is very important that the compositions of the present invention are less toxical towards mammals than the hitherto known compositions of similar efficiency. […] The said selectivity index of Ia amounts to 50/0.45=111.

Acanthoscelides obtectus [1] = assay: Impregnated filter paper disc contact test, mortality (Table 1); type: in vivo, bean weevil (Acanthoscelides obtectus), imago; conditions: Acanthoscelides obtectus, 24 hours, Abbot corrected
Method: (§4) The stereoisomers are dissolved in a 1:2 mixture of mineral oil and acetone and filter paper discs (Whatman No. 1., diameter 9 cm) are impregnated with the corresponding dosage of the solution of the active ingredient. The acetone is allowed to evaporate and the insects are examined on filter paper discs placed into Petri-dishes. Three parallels are used for each dose and 15 animals are placed in each Petri-dish. Mortality rate is determined after 24 hours. The corrected mortality % data are calculated by means of the Abbot formula.

Colorado potato beetle = assay: Plot field test on Colorado potato beetle (Table 24); type: in vivo, adults; conditions: 10 g active ingredients/ha
Method: The treatments are performed on a 25 m^2 plot strongly infected with Colorado potato beetle. 10 plants per plot are specially marked on which the Colorado potato beetles were counted previously. (During assessment of the number of pests only adults of the second Summer generation are taken into consideration, because at the point of time of the test the ratio of larvae of stages L3 and L4 is negligible). Treatment is accomplished on 25 M^2 plots at a dose of 10 g of active ingredients/ha with aqueous suspensions of the formulations according to Example 37 and three parallels are used. The test is evaluated by counting the leave insects on the marked plants. The average values of three parallel tests are disclosed in Table 24.

Acanthoscelides obtectus [2] = assay: 5 EC formulations sprayed on glass plates (Table 21); type: in vivo, bean weevil (Acanthoscelides obtectus), imagos; conditions: 5 EC formulation, 24 hours
Method: as §1
Glass plates are sprayed with 5 EC formulations prepared according to Example 42 in an analogous manner to Example 52. After drying 10 bean weevil (Acanthoscelides obtectus) imagos are placed on each plate and the insects are covered with Petri-dishes. The killed insects are counted after 24 hours. The test is carried out with 6 doses by using 3 parallels for each dose.

Lucilia sericata = assay: Impregnated filter paper disc contact test, mortality (Table 1); type: in vivo, sheep maggot fly (Lucilia sericata), imago; conditions: Lucilia sericata, 24 hours, Abbot corrected
Method: as §4

tribolium confusum = assay: as above; type: in vivo, flour-beetle (tribolium confusum), imago; conditions: Tribolium confusum, 24 hours, Abbot corrected
Method: as §4

[3] = tested on: Leptinotarsa decemlineara larvae; assay: Paralysis of larvae on sprayed tomato plants (Table 23); type: in vivo, L3 stage larvae; conditions: 6 hours
Method: Tomato plants pre-cultivated in pots are sprayed with a suspension of the active ingredient formed with a mixture of acetone and water. The treated plants are placed into isolators and infected with L3 stage Leptinotarsa decemlineara larvae. The percental ratio of paralyzed larvae which fall down from the plants is determined after 6 hours.

Myzus persicae = assay: 5 EC formulations on aphid-infected bean plants (Table 22); type: in vivo, green peach aphids (Myzus persicae)
Method: 15 bean plants infected with green peach aphids (Myzus persicae) at 6 days' age are cultivated in each pot. At 12 days' age the strongly and uniformly infected plants are selected and sprayed to run-off with emulsions freshly prepared from the formulation according to Example 42. Treatments are carried out with three doses (active ingredient 2.5, 5 and 10 ppm) and four parallels are used (one pot per parallel). The second, fourth and eighth day after treatment the aphids are swept down from the plants to a white paper with a fine brush and the live insects are counted.

[4] = Acute toxicity on rats and selectivity index; conditions: rat, in vivo
Text: as §2, §3

Compound: CC1(C)[C@H](C(=O)O[C@H](C#N)c2cccc(Oc3ccccc3)c2)[C@@H]1C=C(Cl)Cl (relative stereo) [Ia]
- mortality at 25 µg/disc (T. confusum; 0.025 mg/disc): 0%
- mortality at 50 µg/disc (T. confusum; 0.05 mg/disc): 0%
- mortality at 100 µg/disc (T. confusum; 0.1 mg/disc): 12%
- mortality at 200 µg/disc (T. confusum; 0.2 mg/disc): 53%
- mortality at 400 µg/disc (T. confusum; 0.4 mg/disc): 96%
- Mortality % (L. decemlineata; dilution 50x): 97%
- Mortality % (L. decemlineata; dilution 100x): 87%
- Mortality % (L. decemlineata; dilution 200x): 63%
- Mortality % (L. decemlineata; dilution 400x): 53%
- Mortality % (L. decemlineata; dilution 800x): 27%
- Mortality % (L. decemlineata; dilution 1600x): 0%
- LD50 (house fly): ~0.45 mg/kg
- mortality at 20 µg/disc (Acanthoscelides obtectus [1]; 0.02 mg/disc): 10%
- mortality at 70 µg/disc (Acanthoscelides obtectus [1]; 0.07 mg/disc): 37%
- mortality at 220 µg/disc (Acanthoscelides obtectus [1]; 0.22 mg/disc): 63%
- mortality at 670 µg/disc (Acanthoscelides obtectus [1]; 0.67 mg/disc): 100%
- mortality at 2000 µg/disc (Acanthoscelides obtectus [1]; 2.0 mg/disc): 100%
- mortality at 6000 µg/disc (Acanthoscelides obtectus [1]; 6.0 mg/disc): 100%
- Average number of live insects/10 plants (Colorado potato beetle; 0 days after treatment (control 211)): 171
- Average number of live insects/10 plants (Colorado potato beetle; 1 day after treatment (control 206)): 11
- Average number of live insects/10 plants (Colorado potato beetle; 3 days after treatment (control 179)): 9
- Average number of live insects/10 plants (Colorado potato beetle; 9 days after treatment (control 183)): 25
- Mortality % (Acanthoscelides obtectus [2]; dilution 50x): 70%
- Mortality % (Acanthoscelides obtectus [2]; dilution 100x): 50%
- Mortality % (Acanthoscelides obtectus [2]; dilution 200x): 33%
- Mortality % (Acanthoscelides obtectus [2]; dilution 400x): 27%
- Mortality % (Acanthoscelides obtectus [2]; dilution 800x): 13%
- Mortality % (Acanthoscelides obtectus [2]; dilution 1600x): 0%
- mortality at 20 µg/disc (Lucilia sericata; 0.02 mg/disc): 0%
- mortality at 70 µg/disc (Lucilia sericata; 0.07 mg/disc): 30%
- mortality at 220 µg/disc (Lucilia sericata; 0.22 mg/disc): 29%
- mortality at 670 µg/disc (Lucilia sericata; 0.67 mg/disc): 57%
- mortality at 2000 µg/disc (Lucilia sericata; 2.0 mg/disc): 60%
- mortality at 6000 µg/disc (Lucilia sericata; 6.0 mg/disc): 65%
- mortality at 20 µg/disc (tribolium confusum; 0.02 mg/disc): 0%
- mortality at 70 µg/disc (tribolium confusum; 0.07 mg/disc): 18%
- mortality at 220 µg/disc (tribolium confusum; 0.22 mg/disc): 51%
- mortality at 670 µg/disc (tribolium confusum; 0.67 mg/disc): 100%
- mortality at 2000 µg/disc (tribolium confusum; 2.0 mg/disc): 100%
- mortality at 6000 µg/disc (tribolium confusum; 6.0 mg/disc): 100%
- % ratio of paralyzed larvae ([3]; 8 ppm): 18%
- % ratio of paralyzed larvae ([3]; 40 ppm): 46%
- % ratio of paralyzed larvae ([3]; 200 ppm): 100%
- % ratio of paralyzed larvae ([3]; 1000 ppm): 100%
- Average number of aphids per pot (Myzus persicae; 2.5 ppm, 2 days after treatment (control 1850)): 44
- Average number of aphids per pot (Myzus persicae; 2.5 ppm, 4 days after treatment (control 2780)): 83
- Average number of aphids per pot (Myzus persicae; 2.5 ppm, 8 days after treatment (control 4120)): 245
- Average number of aphids per pot (Myzus persicae; 5.0 ppm, 2 days after treatment (control 1850)): 22
- Average number of aphids per pot (Myzus persicae; 5.0 ppm, 4 days after treatment (control 2780)): 29
- Average number of aphids per pot (Myzus persicae; 5.0 ppm, 8 days after treatment (control 4120)): 90
- Average number of aphids per pot (Myzus persicae; 10.0 ppm, 2 days after treatment (control 1850)): 8
- Average number of aphids per pot (Myzus persicae; 10.0 ppm, 4 days after treatment (control 2780)): 17
- Average number of aphids per pot (Myzus persicae; 10.0 ppm, 8 days after treatment (control 4120)): 30
- LD50 ([4]; po, rats, p.o., read-out: approximate LD50 toxicity): ~50 mg/kg
- selectivity ratio ([4]; quotient of approximate LD50 values on rats and house fly): 111
